The values below come from US20260234157A1, “COMPOUND AND METHOD FOR TARGETED DEGRADATION OF ANDROGEN RECEPTOR” (Gan & Lee Pharmaceuticals Co., Ltd., priority 2023, published 2026).

The structures appear in SMILES notation. Numbering of substitutions follows the chain as printed. Like-named read-outs stand apart in the source and are kept apart here.

Assay type in all cases: cell-based
Assay [1] has as its target T1, AR protein (Homo sapiens, UniProt P10275, T878A).
T1 construct: degradation activity of the compounds disclosed in the present disclosure on AR protein in LNCaP cells; host or cells: LNCaP FGC
T1 sequence (P10275 1-920 T878A): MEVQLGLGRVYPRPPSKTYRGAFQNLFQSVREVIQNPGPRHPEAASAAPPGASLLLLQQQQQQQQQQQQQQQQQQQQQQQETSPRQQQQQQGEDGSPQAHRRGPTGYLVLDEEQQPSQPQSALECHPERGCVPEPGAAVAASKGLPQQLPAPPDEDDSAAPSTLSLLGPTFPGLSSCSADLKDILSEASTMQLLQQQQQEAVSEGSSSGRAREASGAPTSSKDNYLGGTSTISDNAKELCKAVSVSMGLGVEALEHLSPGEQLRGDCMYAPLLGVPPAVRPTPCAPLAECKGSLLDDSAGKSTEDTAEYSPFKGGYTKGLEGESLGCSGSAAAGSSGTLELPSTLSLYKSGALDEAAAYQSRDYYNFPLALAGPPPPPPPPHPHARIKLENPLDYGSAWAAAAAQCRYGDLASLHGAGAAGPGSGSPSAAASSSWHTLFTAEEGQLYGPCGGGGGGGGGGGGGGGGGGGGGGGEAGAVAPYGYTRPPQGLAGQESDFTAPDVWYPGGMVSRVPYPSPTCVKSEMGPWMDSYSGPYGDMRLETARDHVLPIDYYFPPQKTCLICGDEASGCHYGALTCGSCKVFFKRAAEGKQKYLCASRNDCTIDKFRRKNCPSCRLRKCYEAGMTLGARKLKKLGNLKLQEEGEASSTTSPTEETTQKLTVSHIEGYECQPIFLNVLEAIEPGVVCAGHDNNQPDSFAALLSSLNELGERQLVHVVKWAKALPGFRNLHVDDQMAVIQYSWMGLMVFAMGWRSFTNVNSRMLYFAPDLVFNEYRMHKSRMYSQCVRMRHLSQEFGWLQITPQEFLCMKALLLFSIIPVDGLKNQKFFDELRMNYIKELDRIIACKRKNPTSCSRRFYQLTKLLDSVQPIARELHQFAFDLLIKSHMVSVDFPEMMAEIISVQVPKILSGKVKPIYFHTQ
The assay is described as follows: Degradation of AR protein in LNCaP cells (Western blot). The conditions noted are these: for inhibition at 0.01 µM: read-out: Degradation rates of the AR protein in LNCaP cells, 10 nM (%); for inhibition at 0.1 µM: read-out: Degradation rates of the AR protein in LNCaP cells, 100 nM (%). Summed up:
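AR assessed by SDS-PAGE/Western blot with infrared imaging; band greyscale normalised to GAPDH gave percent degradation.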
On the technique in general: A western blot detects proteins with antibodies after separation by electrophoresis.

The target of assay [2] is T2, AR protein (Homo sapiens, UniProt P10275).
T2 construct: degradation activity of the compounds disclosed in the present disclosure on AR protein in VCaP cells; host or cells: VCaP
T2 sequence (P10275 1-920): T1 sequence (P10275 1-920 T878A) with A878T
The experiment in a line: Degradation of AR protein in VCaP cells (Western blot). The conditions noted are these: 8 hours; for inhibition at 0.01 µM: read-out: Degradation rate of the AR protein in VCaP cells, 10 nM (%); for inhibition at 0.1 µM: read-out: Degradation rate of the AR protein in VCaP cells, 100 nM (%). In short, it runs like this:
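VCaP cells treated with compound alongside solvent controls for 8 h, then lysed in RIPA and protein quantified by BCA. AR detected by SDS-PAGE/Western blot with infrared imaging. Degradation rate calculated from band grayscale, with GAPDH as internal reference.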

Assay [3] has as its system LNCaP FGC cells. The experiment in a line: Inhibition of proliferation of LNCaP cells (WST-8). The conditions noted are these: Homo sapiens, LNCaP, 96 h. On the procedure:
The cells were cultured in a cell culture incubator with 5% CO2 at 37° C. overnight. […] On the sixth day, 96 well plates were taken out, and 20 μL of WST-8 (Beytime, C0040) reagent was added to each well.
Background: Formazan colour is commonly taken as a measure of viable cells.

The subject of assay [4] is VCaP cells. The experiment in a line: Inhibition of proliferation of VCaP cells (WST-8). The conditions noted are these: Homo sapiens, read-out: IC50 for inhibiting the proliferation of VCaP cells. Summed up: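 VCaP FGC cells, 15000 per well in DMEM with 10% FBS, were cultured at 37° C, 5% CO2. On day nine, WST-8 reagent was added to read proliferation.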
The mark [5] stands for this setting: read-out: IC50 for inhibiting the proliferation of LNCaP cells, LNCaP FGC cells, 96 hours, WST-8 absorbance at 450 nm.
Setting [6] is: LNCaP cells, compound 10 nM, 8 hours, Western blot grayscale, GAPDH internal reference.
[7] abbreviates: LNCaP cells, compound 100 nM, 8 hours, Western blot grayscale, GAPDH internal reference.
Setting [8] is: LNCaP FGC cells, 96 hours, WST-8 absorbance at 450 nm, read-out: IC50 for inhibiting the proliferation of LNCaP cells.
Setting [9] is: VCaP cells, 168 hours, WST-8 absorbance at 450 nm.

In the case of `N#Cc1ccc(O[C@H]2CC[C@H](NC(=O)c3ccc(N4CCC(N5CCC6(CCc7ccc8c(c7O6)CN(C6CCC(=O)NC6=O)C8=O)CC5)CC4)nn3)CC2)cc1Cl` (stereo partly shown) [Compound 171], the inhibition at 0.01 µM in assay [1] (LNCaP, 8 h) came to 22%; in assay [2] (compound at 10 nM), 46%. For the same compound, the inhibition at 0.1 µM in assay [1] (LNCaP, 8 h) was determined as 44%; in assay [2] (compound at 100 nM), 62%. In addition, the IC50 in assay [3] (setting [5]) was determined as 13.5 µM; in assay [4] (VCaP, 168 h) it was 0.001 µM.
Take `N#Cc1ccc(O[C@H]2CC[C@H](NC(=O)c3ccc(N4CCC5(CCC(N6CCC7(CCc8cc9c(cc8O7)C(=O)N(C7CCC(=O)NC7=O)C9=O)CC6)CC5)C4)nn3)CC2)cc1Cl` (stereo partly shown) [Compound 34]: the inhibition at 0.01 µM in assay [1] (setting [6]) was 57%; in assay [2] (compound at 10 nM), 39%. Moreover, the inhibition at 0.1 µM stood at 70% in assay [1] (setting [7]) and 51% in assay [2] (compound at 100 nM). The IC50 in assay [3] (setting [8]) was determined as 1.12 µM; in assay [4] (setting [9]), 4.2 µM.
For `COc1cc(O[C@H]2C(C)(C)[C@H](NC(=O)c3ccc(N4CCC(C)(CN5CCC6(CC5)COc5c6ccc6c5CN(C5CCC(=O)NC5=O)C6=O)CC4)cc3)C2(C)C)ccc1C#N` (stereo partly shown) [Compound 221], the results for the inhibition at 0.01 µM in assay [1] (setting [6]) and in assay [2] (compound at 10 nM) were 24% and 16%, respectively. The inhibition at 0.1 µM was 76% in assay [1] (setting [7]) and 64% in assay [2] (compound at 100 nM). Also, the IC50 was determined as 0.046 µM in assay [3] (setting [8]) and 0.0015 µM in assay [4] (setting [9]).
For `COc1cc(O[C@H]2C(C)(C)[C@H](NC(=O)c3ccc(N4CCC(F)(CN5CCC6(CC5)COc5c6ccc6c5C(=O)N(C5CCC(=O)NC5=O)C6=O)CC4)cc3)C2(C)C)ccc1C#N` (stereo partly shown) [Compound 275], the inhibition at 0.01 µM was found to be 30% in assay [1] (setting [6]) and 7% in assay [2] (compound at 10 nM). The inhibition at 0.1 µM came out at 54% in assay [1] (setting [7]) and 51% in assay [2] (compound at 100 nM). The IC50 amounted to 0.24 µM in assay [3] (setting [8]) and 0.02 µM in assay [4] (setting [9]).
Take `N#Cc1ccc(O[C@H]2CC[C@H](NC(=O)c3ccc(N4CC(N5CCC6(CCc7ccc8c(c7O6)CN(C6CCC(=O)NC6=O)C8=O)CC5)C4)nn3)CC2)cc1Cl` (stereo partly shown) [Compound 172]: the inhibition at 0.01 µM in assay [1] (LNCaP, 8 h) was 12%; in assay [2] (compound at 10 nM), -9%. For the same compound, the inhibition at 0.1 µM was 33% in assay [1] (LNCaP, 8 h) and -14% in assay [2] (compound at 100 nM). The IC50 worked out at 91.4 µM in assay [3] (setting [5]) and 78.8 µM in assay [4] (VCaP, 168 h).
On to `N#Cc1ccc(O[C@H]2CC[C@H](NC(=O)c3ccc(N4CC5(CC(N6CCC7(CCc8ccc9c(c8O7)CN(C7CCC(=O)NC7=O)C9=O)CC6)C5)C4)nn3)CC2)cc1Cl` (stereo partly shown) [Compound 152], for which the inhibition at 0.01 µM amounted to 45% in assay [1] (setting [6]) and 51% in assay [2] (compound at 10 nM). Further, the inhibition at 0.1 µM came out at 24% in assay [1] (setting [7]) and 72% in assay [2] (compound at 100 nM). The IC50 in assay [3] (setting [8]) is 28.3 µM; in assay [4] (setting [9]), > 90 µM.
Turning to `N#Cc1ccc(O[C@H]2CC[C@H](NC(=O)c3ccc(N4CCC5(CCc6cc7c(cc6O5)C(=O)N(C5CCC(=O)NC5=O)C7=O)CC4)nn3)CC2)cc1Cl` (stereo partly shown) [Compound 28], the figures for the inhibition at 0.01 µM in assay [1] (setting [6]) and in assay [2] (compound at 10 nM) were 58% and 9%, respectively. Also, the inhibition at 0.1 µM worked out at 60% in assay [1] (setting [7]) and 35% in assay [2] (compound at 100 nM). The IC50 in assay [3] (setting [8]) is 3.9 µM; in assay [4] (setting [9]) it was 6.2 µM.
Turning to `COc1cc(O[C@H]2C(C)(C)[C@H](NC(=O)c3ccc(N4CCC(C)(CN5CCC6(CCc7ccc8c(c7O6)CN(C6CCC(=O)NC6=O)C8=O)CC5)CC4)cc3)C2(C)C)ccc1C#N` (stereo partly shown) [Compound 283], the inhibition at 0.01 µM in assay [1] (setting [6]) was found to be 53%; in assay [2] (compound at 10 nM), 2%. The values for the inhibition at 0.1 µM in assay [1] (setting [7]) and in assay [2] (compound at 100 nM) were 66% and 45%, respectively. The IC50 in assay [3] (setting [8]) is 97.6 µM; in assay [4] (setting [9]) it was 0.013 µM.
Consider `COc1cc(O[C@H]2C(C)(C)[C@H](NC(=O)c3ccc(N4CCC(F)(CN5CC6(CCc7cc8c(cc7O6)C(=O)N(C6CCC(=O)NC6=O)C8=O)C5)CC4)cc3)C2(C)C)ccc1C#N` (stereo partly shown) [Compound 269], for which the inhibition at 0.01 µM in assay [1] (setting [6]) came out at 35%; in assay [2] (compound at 10 nM) it was 7%. Also, the results for the inhibition at 0.1 µM in assay [1] (setting [7]) and in assay [2] (compound at 100 nM) were 61% and 63%, respectively. Moreover, the results for the IC50 in assay [3] (setting [8]) and in assay [4] (setting [9]) were 11.8 µM and 0.27 µM, respectively.
For `CCOC1(CN2CCC3(CC2)COc2c3ccc3c2C(=O)N(C2CCC(=O)NC2=O)C3=O)CCN(c2ccc(C(=O)N[C@H]3CC[C@H](Oc4ccc(C#N)c(Cl)c4)CC3)nn2)CC1` (stereo partly shown) [Compound 244], the values for the inhibition at 0.01 µM in assay [1] (setting [6]) and in assay [2] (compound at 10 nM) were -5% and 3%, respectively. In addition, the inhibition at 0.1 µM in assay [1] (setting [7]) stood at 65%; in assay [2] (compound at 100 nM), 56%. The values for the IC50 in assay [3] (setting [8]) and in assay [4] (setting [9]) were 0.17 µM and 0.068 µM, respectively.
On to `CC1(C)[C@H](NC(=O)c2ccc(N3CCC(CN4CCC5(CC4)COc4c5ccc5c4CN(C4CCC(=O)NC4=O)C5=O)CC3)nn2)C(C)(C)[C@H]1Oc1ccc(C#N)c(Cl)c1` (stereo partly shown) [Compound 210], for which the inhibition at 0.01 µM in assay [1] (setting [6]) was 61%; in assay [2] (compound at 10 nM) it was 28%. Moreover, the inhibition at 0.1 µM in assay [1] (setting [7]) is 59%; in assay [2] (compound at 100 nM) it was 71%. Moreover, the IC50 in assay [3] (setting [8]) worked out at 0.008 µM; in assay [4] (setting [9]), 0.002 µM.
For `N#Cc1ccc(O[C@H]2CC[C@H](NC(=O)c3ccc(N4CCC(C(=O)N5CCC(N6CCC7(CC6)COc6c7ccc7c6CN(C6CCC(=O)NC6=O)C7=O)CC5)CC4)nn3)CC2)cc1Cl` (stereo partly shown) [Compound 161], in assay [2] (compound at 10 nM), the “Degradation rate of the AR protein in VCaP cells, 10 nM (%)” value is reported as 47%. Moreover, the “Degradation rate of the AR protein in VCaP cells, 100 nM (%)” value in assay [2] (compound at 100 nM) was determined as 84%. For the same compound, the IC50 came to 0.44 µM in assay [3] (setting [8]) and 0.003 µM in assay [4] (setting [9]).
